CC(C)C(=O)Nc1ccc([N+](=O)[O-])c(C(F)(F)F)c1
solubility (mole fraction)
Settings | 278.15 K | 283.15 K | 288.15 K | 293.15 K | 298.15 K | 303.15 K | 308.15 K | 313.15 K | 318.15 K | 323.15 K
in 1,4-dioxane | – | 0.108 | 0.127 | 0.151 | 0.177 | 0.203 | 0.231 | 0.262 | 0.299 | 0.348
in THF | 0.259 | 0.276 | 0.297 | 0.321 | 0.348 | 0.376 | 0.405 | 0.436 | 0.469 | 0.502
in acetone | 0.186 | 0.201 | 0.228 | 0.258 | 0.291 | 0.327 | 0.366 | 0.407 | 0.45 | 0.49
in acetonitrile | 0.0566 | 0.0711 | 0.0902 | 0.119 | 0.157 | 0.197 | 0.246 | 0.296 | 0.355 | 0.427
in ethanol | 0.0503 | 0.0556 | 0.063 | 0.0709 | 0.0797 | 0.0908 | 0.102 | 0.117 | 0.133 | 0.154
in ethyl acetate | 0.161 | 0.178 | 0.191 | 0.206 | 0.227 | 0.246 | 0.269 | 0.29 | 0.321 | 0.351
in isobutanol | 0.0307 | 0.0381 | 0.0487 | 0.0632 | 0.0776 | 0.0965 | 0.118 | 0.141 | 0.171 | 0.207
in isopropanol | 0.0539 | 0.0609 | 0.0692 | 0.0799 | 0.0918 | 0.105 | 0.121 | 0.139 | 0.161 | 0.182
in methanol | 0.0401 | 0.047 | 0.0555 | 0.0641 | 0.0757 | 0.0878 | 0.103 | 0.12 | 0.142 | 0.166
in methyl acetate | 0.141 | 0.157 | 0.179 | 0.208 | 0.24 | 0.275 | 0.312 | 0.35 | 0.396 | 0.447
in n-butanol | 0.049 | 0.0549 | 0.0622 | 0.0709 | 0.0797 | 0.0904 | 0.103 | 0.117 | 0.135 | 0.156
in n-propanol | 0.049 | 0.0547 | 0.0624 | 0.0698 | 0.0784 | 0.0889 | 0.101 | 0.115 | 0.132 | 0.15

From BigSolDB 2.1
